# Data taken from patent US6689392B2, “Methods and compositions for controlling plant pathogen” (Agricare Ltd., priority 2001, dated 2004).
# Where two headings read alike, the source gives them in different places.
# Columns and labels:
# P. infestans [1] = assay type: in vivo, Phytophthora infestans; design: ED90: unit not given beside the values
# P. infestans [2] = assay type: cell-based, Phytophthora infestans; design: unit not given beside the values
# P. infestans [3] = assay type: in vivo, Phytophthora infestans; design: unit not given beside the values; conditions: TOMATO; Table 2
# P. infestans [4] = assay type: in vivo, Phytophthora infestans; design: unit not given beside the values; conditions: POTATO; Table 2
# Pythium aphanidermatum = Pythium aphanidermatum mycelial growth in vitro; assay type: cell-based; conditions: recommended dosage of 0.07% of active ingredient; 24 hr, 25° C.; FIG. 6
# P. aphanidermatum = test: Pythium damping-off disease in cucumber seedlings; assay type: in vivo, Pythium aphanidermatum; conditions: drench at 0.07% of active ingredient, after 10 days, FIG. 7
compound,measurement,setting,value
"OP(O)O [H3PO3, Phosphorous Acid]",Inhibition (% of control),"P. infestans [1]; Tomato, 0.01% active ingredient, Table 4",13 % of control
same,Inhibition (% of control),"P. infestans [1]; Tomato, 0.02% active ingredient, Table 4",13 % of control
same,Inhibition (% of control),"P. infestans [1]; Tomato, 0.05% active ingredient, Table 4",19 % of control
same,Inhibition (% of control),"P. infestans [1]; Tomato, 0.1% active ingredient, Table 4",31 % of control
same,ED90,P. infestans [1]; in vivo,2.52
same,ED90,P. infestans [2],45
Potassium Phosphite [K3PO3],Inhibition (% of control),"P. infestans [1]; Tomato, 0.12% active ingredient, Table 3",50 % of control
same,Inhibition (% of control),"P. infestans [1]; Tomato, 0.25% active ingredient, Table 3",63 % of control
same,Inhibition (% of control),"P. infestans [1]; Tomato, 0.5% active ingredient, Table 3",86 % of control
same,Inhibition (% of control),"P. infestans [1]; Tomato, 1.0% active ingredient, Table 3",98 % of control
same,ED90,"P. infestans [1]; Tomato, Table 3",0.55
same,ED90,P. infestans [3],1.10
same,ED90,"P. infestans [2]; tomato leaf discs, Table 1",130
same,ED90,P. infestans [4],0.52
CCO[PH](=O)O [Fosetyl-Al],inhibition of radial growth in vitro,Pythium aphanidermatum,50%
same,plants survived in Pythium-inoculated flats,P. aphanidermatum,70-80%
